US20050153870A1, “Medicinal composition for diagnosis, prevention, or therapy of multiple risk factor syndrome” (priority 2002, published 2005)
Marks after values point to notes of the source that are not given here.

Assays:
db/db mice = assay: Blood sugar decreasing effect in db/db mice (Example 7); format: in vivo, mouse; details: for Body weight / Blood sugar level: in feed for a week (MAC 0.05%, AS-103 0.05%, AR-610 0.1%, AF 0.4%, AC 0.05%); for Body weight: control group 44.6 ± 0.9; for Blood sugar level: control group 549.8 ± 21.8; for Blood sugar level, change vs control group / Body weight, change vs control group: in feed for a week, contents as in table
Procedure: (§1) Powered feed to which ascofuranone (AF) and ascochlorin (AC) as well as its derivatives, 4-0-methylascochlorin (MAC), 4-0-carboxymethylascochlorin (AS-6), and 4-0-nicotinoyl ascochlorin (AS-103) were added to feed at the proportions shown in the table, and the feed were given to db/db mice for a week and then analyzed for blood sugar decreasing effect (8 mice/group).

quail = assay: Arteriosclerosis suppressing effect, quail on cholesterol feed; format: in vivo; details: poultry feed containing 2% of cholesterol, 9 months, 0.0125 to 0.2% added to feed
Source text: As to prevention/therapy of arteriosclerosis, a big difference is observed in effect between medicaments conceivably effective in improving arteriosclerosis, such as fibrate series medicament, thiazolidine series medicament, probucol, and statin series medicament and a compound of the present invention.

Mouse, db/db mouse = assay: Serum insulin decreasing effect; format: in vivo; details: about 0.1% added to feed
Lean = assay: Body weight and blood sugar in Lean mice (Example 7); format: in vivo, mouse; details: for Body weight / Blood sugar level: in feed for a week (MAC 0.05%, AS-103 0.05%, AR-610 0.1%, AF 0.4%, AC 0.05%); for Body weight: control group 20.9 ± 0.8; for Blood sugar level: control group 211.2 ± 7.8; for Blood sugar level, change vs control group / Body weight, change vs control group: in feed for a week, contents as in table
Procedure: [The procedure below names another variant; the source lists this variant under the same test.] as §1

[1] = test system: Mouse, rat, beagle dog, quail, DOCA hypertension rat; assay: Serum cholesterol decreasing effect; format: in vivo; details: incl. rat and quail raised with hyperfat feed
Procedure: The quails are raised by giving a feed containing 2% cholesterol for 9 months to develop hypercholesteremia, and, in the case of the rats, mineral corticoid and saline are administered to allow them to develop heart and blood vessel disease and then hypercholesteremia.

[2] = test system: patients with type II diabetes; assay: Glucose tolerance test in Clinical test II; format: in vivo, human; details: 50 g of glucose perorally at fasting; after therapy of 12 weeks vs before; 30 patients
Procedure: A glucose tolerance test were performed by perorally taking 50 g of glucose at fasting time in the early morning and measuring concentrations of blood sugar and urine sugar with time. A solid line represents the results immediately before therapy and a broken line represents immediately after the therapy of 12 weeks. Since a process of a glucose tolerance test more or less varied depending upon medical institutions, data of all patients (30 patients) with type II diabetes participated in this test in a single and the same institution are statistically analyzed and shown. […] Note that, in the FIGS. 2 and 3, numerical values each represent average value±standard deviation.

Zucker rats = assay: AS-6 in feed to Zucker rats for 10 weeks (Example 5); format: in vivo, rat; details: 0.12% in feed
Procedure: Zucker rats were divided into two groups. One group was raised with commercially available feed to which 4-O-carboxymethylascochlorin (AS-6) was mixed up to a content of 0.12%. The other group and normal Lean-rat littermate group were raised for 10 weeks with the same commercially available feed containing no AS-6. Thereafter, body weight, white adipose cell weight, blood insulin, blood sugar, and blood lipid were measured (7 mice/group).

Row | Structure (SMILES) | Body weight (db/db mice) [g] | Blood sugar level (db/db mice) [mg/dL] | Blood sugar level, change vs control group (db/db mice) | Body weight, change vs control group (db/db mice) | serum insulin (Mouse, db/db mouse) | Body weight (Lean) [g] | Blood sugar level (Lean) [mg/dL] | Blood sugar level, change vs control group (Lean) | Body weight, change vs control group (Lean) | serum cholesterol decreasing effect [1] | other results
1 | COc1c(Cl)c(C)c(C=O)c(O)c1C/C=C(C)/C=C/[C@@]1(C)[C@H](C)CCC(=O)[C@@H]1C [4-O-methylascochlorin] | 45.5 ± 1.8 | 478.0 ± 28.3 | −13.3%* | ns | added in an amount of about 0.1% to feed and given to an animal, it decreases serum | 21.3 ± 0.9 | 223.1 ± 11.6 | ns | ns | carboxymethylascochlorin, and ascofuranone exhibits an effect of decreasing serum | atherosclerosis of the aorta, hypercholesterolemia, deposition of cholesterol onto the heart and the aorta (quail): the aforementioned changes are suppressed.; blood sugar level in glucose tolerance test (FIG. 2) [2]: significantly decreases blood sugar level; urine sugar level in glucose tolerance test (FIG. 3) [2]: significantly decreases the concentration of glucose contained in the urine
2 | CC(C=CC1(C)C(C)CCC(=O)C1C)=CCc1c(O)c(C=O)c(C)c(Cl)c1OCC(=O)O (stereo not shown) [AS-6, 4-O-carboxymethylascochlorin] | 45.3 ± 1.7 | 335.8 ± 8.5 | −38.9%** | ns | added in an amount of about 0.1% to feed and given to an animal, it decreases serum | 20.2 ± 0.4 | 194.1 ± 9.5 | ns | ns | carboxymethylascochlorin, and ascofuranone exhibits an effect of decreasing serum | Blood sugar (full feeding), change vs Zucker control group (Zucker rats): ns; Body weight, change vs Zucker control group (Zucker rats): ns; Cholesterol, change vs Zucker control group (Zucker rats): ns; Free fatty acid, change vs Zucker control group (Zucker rats): −50.0%; Insulin, change vs Zucker control group (Zucker rats): −23.4%; Neutral fat, change vs Zucker control group (Zucker rats): −49.8%; Phospholipid, change vs Zucker control group (Zucker rats): −14.3%; White adipose cells, change vs Zucker control group (Zucker rats): ns; Free fatty acid (Zucker rats; Zucker control 1.391 ± 0.110): 0.696 ± 0.069; White adipose cells (Zucker rats; Zucker control 4.06 ± 0.09): 3.66 ± 0.11; Cholesterol (Zucker rats; Zucker control 117.4 ± 4.8): 123.6 ± 7.8; Insulin (Zucker rats; Zucker control 176.3 ± 14.7): 135.1 ± 15.6; Phospholipid (Zucker rats; Zucker control 340.8 ± 12.0): 292.1 ± 8.9; Body weight (Zucker rats; Zucker control 362 ± 13): 358 ± 15; Neutral fat (Zucker rats; Zucker control 928.6 ± 47.7): 466.3 ± 60.2; Blood sugar (full feeding) (Zucker rats; Zucker control printed 73.0 ± 14.5): 174.3 ± 19.0; insulin, free fatty acid, neutral fat and phospholipid (Zucker rats; Zucker rats): significantly reduced
